Reference: PubChem BioAssay AID1919016 (Molecular Pharmacology Branch, DTP, NCI, 2023)
pIC50: −log10 of the molar value.

System: NCI-H196 complex spheroid growth, percent test/control
Assay: Anticancer human tumor NCI-H196 cell line growth inhibition [AhR];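 note: seven days of drug exposure starting three days after plating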;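 for viability, T/C: 100% = DMSO vehicle control wells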
Details: for pIC50: curve of first compound; for viability, T/C: stronger effect = lower value
Procedure, shortened: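 Spheroids combined tumor cells with HUVEC endothelial cells and human MSCs as stroma. AhR antagonists were paired with standard or investigational drugs, each dosed in half-log steps down from near clinical Cmax, or from 10 microM where Cmax was unknown.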

[1] = second compound 0.1 µM, first compound 0.0316 µM
[2] = second compound 0.1 µM, first compound 0.1 µM
[3] = second compound 0.1 µM, first compound 0.316 µM
[4] = second compound 0.1 µM, first compound 1 µM
[5] = second compound 0.1 µM, first compound 3.16 µM
[6] = second compound 0.1 µM, first compound 10 µM
[7] = second compound 0.316 µM, first compound 0.0316 µM
[8] = second compound 0.316 µM, first compound 0.1 µM
[9] = second compound 0.316 µM, first compound 0.316 µM
[10] = second compound 0.316 µM, first compound 1 µM
[11] = second compound 0.316 µM, first compound 3.16 µM
[12] = second compound 0.316 µM, first compound 10 µM
[13] = second compound 1 µM, first compound 0.0316 µM
[14] = second compound 1 µM, first compound 0.1 µM
[15] = second compound 1 µM, first compound 0.316 µM
[16] = second compound 1 µM, first compound 1 µM
[17] = second compound 1 µM, first compound 3.16 µM
[18] = second compound 1 µM, first compound 10 µM
[19] = second compound 3.16 µM, first compound 0.0316 µM
[20] = second compound 3.16 µM, first compound 0.1 µM
[21] = second compound 3.16 µM, first compound 0.316 µM
[22] = second compound 3.16 µM, first compound 1 µM
[23] = second compound 3.16 µM, first compound 3.16 µM
[24] = second compound 3.16 µM, first compound 10 µM
[25] = second compound 10 µM, first compound 0.0316 µM
[26] = second compound 10 µM, first compound 0.1 µM
[27] = second compound 10 µM, first compound 0.316 µM
[28] = second compound 10 µM, first compound 1 µM
[29] = second compound 10 µM, first compound 3.16 µM
[30] = second compound 10 µM, first compound 10 µM

COc1cc(Nc2ncc3c(n2)-c2ccc(Cl)cc2C(c2c(F)cccc2OC)=NC3)ccc1C(=O)O + CC(CO)NC(=O)c1cc(-c2ccc(Cl)cc2)nn(-c2cnn(C)c2)c1=O
pIC50 (second compound 0.1 µM): < 5.00 | pIC50 (second compound 0.316 µM): < 5.00 | pIC50 (second compound 1 µM): < 5.00 | pIC50 (second compound 3.16 µM): < 5.00 | pIC50 (second compound 10 µM): < 5.00 | viability, T/C [1]: 91.5% | viability, T/C [2]: 107% | viability, T/C [3]: 116% | viability, T/C [4]: 112% | viability, T/C [5]: 111% | viability, T/C [6]: 138% | viability, T/C [7]: 103% | viability, T/C [8]: 106% | viability, T/C [9]: 119% | viability, T/C [10]: 113% | viability, T/C [11]: 127% | viability, T/C [12]: 116% | viability, T/C [13]: 101% | viability, T/C [14]: 98.9% | viability, T/C [15]: 112% | viability, T/C [16]: 111% | viability, T/C [17]: 136% | viability, T/C [18]: 134% | viability, T/C [19]: 107% | viability, T/C [20]: 108% | viability, T/C [21]: 121% | viability, T/C [22]: 115% | viability, T/C [23]: 130% | viability, T/C [24]: 132% | viability, T/C [25]: 107% | viability, T/C [26]: 109% | viability, T/C [27]: 126% | viability, T/C [28]: 122% | viability, T/C [29]: 127% | viability, T/C [30]: 131%

Cn1ncnc1C1c2n[nH]c(=O)c3cc(F)cc(c23)NC1c1ccc(F)cc1 (stereo not given) + CC(CO)NC(=O)c1cc(-c2ccc(Cl)cc2)nn(-c2cnn(C)c2)c1=O
pIC50 (second compound 0.1 µM): < 7.00 | pIC50 (second compound 0.316 µM): < 7.00 | pIC50 (second compound 1 µM): < 7.00 | pIC50 (second compound 3.16 µM): < 7.00 | pIC50 (second compound 10 µM): < 7.00 | viability, T/C (second compound 0.1 µM, first compound 0.000316 µM): 111% | viability, T/C (second compound 0.1 µM, first compound 0.001 µM): 107% | viability, T/C (second compound 0.1 µM, first compound 0.00316 µM): 103% | viability, T/C (second compound 0.1 µM, first compound 0.01 µM): 102% | viability, T/C [1]: 113% | viability, T/C [2]: 103% | viability, T/C (second compound 0.316 µM, first compound 0.000316 µM): 104% | viability, T/C (second compound 0.316 µM, first compound 0.001 µM): 109% | viability, T/C (second compound 0.316 µM, first compound 0.00316 µM): 102% | viability, T/C (second compound 0.316 µM, first compound 0.01 µM): 99.2% | viability, T/C [7]: 101% | viability, T/C [8]: 105% | viability, T/C (second compound 1 µM, first compound 0.000316 µM): 113% | viability, T/C (second compound 1 µM, first compound 0.001 µM): 112% | viability, T/C (second compound 1 µM, first compound 0.00316 µM): 104% | viability, T/C (second compound 1 µM, first compound 0.01 µM): 105% | viability, T/C [13]: 114% | viability, T/C [14]: 109% | viability, T/C (second compound 3.16 µM, first compound 0.000316 µM): 106% | viability, T/C (second compound 3.16 µM, first compound 0.001 µM): 119% | viability, T/C (second compound 3.16 µM, first compound 0.00316 µM): 118% | viability, T/C (second compound 3.16 µM, first compound 0.01 µM): 104% | viability, T/C [19]: 103% | viability, T/C [20]: 107% | viability, T/C (second compound 10 µM, first compound 0.000316 µM): 122% | viability, T/C (second compound 10 µM, first compound 0.001 µM): 111% | viability, T/C (second compound 10 µM, first compound 0.00316 µM): 110% | viability, T/C (second compound 10 µM, first compound 0.01 µM): 103% | viability, T/C [25]: 108% | viability, T/C [26]: 104%

NS(=O)(=O)OCC1CC(n2ccc3c(NC4CCc5ccccc54)ncnc32)CC1O (stereo not given) + CC(CO)NC(=O)c1cc(-c2ccc(Cl)cc2)nn(-c2cnn(C)c2)c1=O
pIC50 (second compound 0.1 µM): < 5.00 | pIC50 (second compound 0.316 µM): < 5.00 | pIC50 (second compound 1 µM): < 5.00 | pIC50 (second compound 3.16 µM): < 5.00 | pIC50 (second compound 10 µM): < 5.00 | viability, T/C [1]: 85.4% | viability, T/C [2]: 79.8% | viability, T/C [3]: 67.1% | viability, T/C [4]: 61.3% | viability, T/C [5]: 62.9% | viability, T/C [6]: 60.2% | viability, T/C [7]: 82.8% | viability, T/C [8]: 85.2% | viability, T/C [9]: 68.8% | viability, T/C [10]: 59.2% | viability, T/C [11]: 52.5% | viability, T/C [12]: 55.7% | viability, T/C [13]: 87.2% | viability, T/C [14]: 74.4% | viability, T/C [15]: 67.6% | viability, T/C [16]: 57.5% | viability, T/C [17]: 61.2% | viability, T/C [18]: 51.4% | viability, T/C [19]: 81.4% | viability, T/C [20]: 83.7% | viability, T/C [21]: 71.1% | viability, T/C [22]: 56.4% | viability, T/C [23]: 62.9% | viability, T/C [24]: 55.4% | viability, T/C [25]: 90.7% | viability, T/C [26]: 96.9% | viability, T/C [27]: 83.8% | viability, T/C [28]: 59.2% | viability, T/C [29]: 54% | viability, T/C [30]: 52.4%

O=C(C=Cc1cccc(S(=O)(=O)Nc2ccccc2)c1)NO + CC(CO)NC(=O)c1cc(-c2ccc(Cl)cc2)nn(-c2cnn(C)c2)c1=O
pIC50 (second compound 0.1 µM): 5.79 | pIC50 (second compound 0.316 µM): 5.75 | pIC50 (second compound 1 µM): 5.69 | pIC50 (second compound 3.16 µM): 5.76 | pIC50 (second compound 10 µM): 5.74 | viability, T/C [1]: 107% | viability, T/C [2]: 92.2% | viability, T/C [3]: 91.3% | viability, T/C [4]: 72.2% | viability, T/C [5]: 21.6% | viability, T/C [6]: 1.02% | viability, T/C [7]: 109% | viability, T/C [8]: 98.1% | viability, T/C [9]: 98.9% | viability, T/C [10]: 71.2% | viability, T/C [11]: 28% | viability, T/C [12]: 0.59% | viability, T/C [13]: 101% | viability, T/C [14]: 99.5% | viability, T/C [15]: 102% | viability, T/C [16]: 83.7% | viability, T/C [17]: 28.5% | viability, T/C [18]: 0.5% | viability, T/C [19]: 108% | viability, T/C [20]: 109% | viability, T/C [21]: 102% | viability, T/C [22]: 74.1% | viability, T/C [23]: 24.3% | viability, T/C [24]: 0.54% | viability, T/C [25]: 119% | viability, T/C [26]: 106% | viability, T/C [27]: 99.9% | viability, T/C [28]: 75.1% | viability, T/C [29]: 26.9% | viability, T/C [30]: 0.56%
